Results from patent US20180319865A1, “Identification of Novel Small Molecule Beta2 Integrin Agonists” (Rush University Medical Center, priority 2016, published 2018).

target: T1, mutant integrin CD11bE320A/CD18 (Homo sapiens, UniProt P11215, E336A); experiment: HTS cell adhesion assay, K562 E320A cells on immobilized fibrinogen; type: cell-based; details: Table 3, adhesion to fibrinogen, five point dose-response
T1 construct: expressed in transfected cells; host or cells: K562 (ATCC)
Description: K562 cells stably expressing CD11c/CD18 (K562 CD11c/CD18) were generated similarly. […] K562 cells stably transfected with mutant integrin CD11bE320A/CD18 (K562 E320A) were generated according to literature protocols. All cell lines were maintained in Iscove's Modified Dulbecco's Medium (IMDM) supplemented with 10% heat-inactivated fetal bovine serum, 50 IU/mL penicillin and streptomycin and 0.5 mg/mL G418.
Cell adhesion assays with immobilized ligands were performed using the general protocol previously described and as illustrated in FIG. 1 [33]. Assays with all different K562 cell lines (K562, K562 CD11b/CD18, K562 CD11c/CD18 and K562 E320A) were performed in an identical fashion. Briefly, 384-well microplates (Corning 3700) were coated with 15 μg/mL fibrinogen (Fg) ligand in PBS^++ overnight at 4° C. At the same time, anti-CD18 (IB4) mAb was also coated. Subsequently, the coated wells were washed with 1% nonfat milk in TBS at room temperature for 1 hour. Next, the wells were washed 3 times with TBS, and the coated microplates were used in the HTS assays.
K562 CD11b/CD18, K562 CD11bE320A/CD18 and K562 CD11c/CD18 cells were washed with TBS, and cells were transferred to the Fg-coated wells of microplates in the assay buffer (Ca^2+ and Mg^2+ for physiological condition, Mn^2+ as the Positive control). A 1 μL aliquot of the compounds were transferred to each washed well with multichannel pipet from the 384-well plates.
The assay plates were incubated at 37° C. in the presence of small-molecule compounds for 30 min. To dislodge the non-adherent cell, the assay plates were gently inverted and kept in inverted position for 20 min at room temperature.
The cells were fixed with 37% formaldehyde in a small volume and the plates were kept inverted for 1 h. Upon the fixation, the solutions in the well were discarded. Next, the cells were fluorescently labeled with DAPI (0.5 μM final in TBS with 0.1% Triton X-100) and the quantitated with “Opera High Content Screening System” (Perkin Elmer).
Cell-adhesion under positive and negative control conditions was used to define the activity scale; signal corresponding to the number of non-small molecule treated cells adherent in activating buffer condition (in the presence of Mn^2+ ions as agonist, PC) was considered maximum (100% binding) and the signal corresponding to the number of non-small molecule treated cells adherent in basal buffer condition (in the presence of 1 mM each of Ca^2+ and Mg^2+, NC) was considered minimum (0% binding).

T1 sequence (P11215 17-1152 E336A): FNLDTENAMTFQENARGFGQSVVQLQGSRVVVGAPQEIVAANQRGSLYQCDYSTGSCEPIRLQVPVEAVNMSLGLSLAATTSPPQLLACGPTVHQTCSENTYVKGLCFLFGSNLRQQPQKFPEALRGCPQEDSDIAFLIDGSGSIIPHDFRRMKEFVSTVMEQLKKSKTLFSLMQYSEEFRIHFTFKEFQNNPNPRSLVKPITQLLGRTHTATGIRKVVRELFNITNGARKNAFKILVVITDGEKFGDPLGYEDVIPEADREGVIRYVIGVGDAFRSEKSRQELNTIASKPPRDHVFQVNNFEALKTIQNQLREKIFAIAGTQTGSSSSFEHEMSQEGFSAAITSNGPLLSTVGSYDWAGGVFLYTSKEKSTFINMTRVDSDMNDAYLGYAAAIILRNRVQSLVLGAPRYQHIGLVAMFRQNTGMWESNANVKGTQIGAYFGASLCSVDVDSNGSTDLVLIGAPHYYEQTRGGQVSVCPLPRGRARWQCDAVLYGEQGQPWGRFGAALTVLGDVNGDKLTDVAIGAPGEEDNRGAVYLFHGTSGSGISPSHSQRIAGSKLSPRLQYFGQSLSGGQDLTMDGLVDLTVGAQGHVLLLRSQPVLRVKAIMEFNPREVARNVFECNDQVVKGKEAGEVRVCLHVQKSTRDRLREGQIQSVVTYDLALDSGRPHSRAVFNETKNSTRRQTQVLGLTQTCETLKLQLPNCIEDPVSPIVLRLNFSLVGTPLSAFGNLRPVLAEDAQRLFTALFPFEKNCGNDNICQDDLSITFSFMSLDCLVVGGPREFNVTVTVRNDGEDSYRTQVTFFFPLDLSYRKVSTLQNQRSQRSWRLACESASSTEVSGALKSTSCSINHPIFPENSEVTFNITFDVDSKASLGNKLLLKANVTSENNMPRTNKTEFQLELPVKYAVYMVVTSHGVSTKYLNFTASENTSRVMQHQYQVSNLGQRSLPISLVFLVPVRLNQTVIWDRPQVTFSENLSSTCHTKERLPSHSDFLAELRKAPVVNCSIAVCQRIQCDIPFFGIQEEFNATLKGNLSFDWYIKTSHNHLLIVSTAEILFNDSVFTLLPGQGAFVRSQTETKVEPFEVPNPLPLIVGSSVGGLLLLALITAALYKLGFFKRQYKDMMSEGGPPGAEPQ
T1 sequence (P05107 23-769 partner): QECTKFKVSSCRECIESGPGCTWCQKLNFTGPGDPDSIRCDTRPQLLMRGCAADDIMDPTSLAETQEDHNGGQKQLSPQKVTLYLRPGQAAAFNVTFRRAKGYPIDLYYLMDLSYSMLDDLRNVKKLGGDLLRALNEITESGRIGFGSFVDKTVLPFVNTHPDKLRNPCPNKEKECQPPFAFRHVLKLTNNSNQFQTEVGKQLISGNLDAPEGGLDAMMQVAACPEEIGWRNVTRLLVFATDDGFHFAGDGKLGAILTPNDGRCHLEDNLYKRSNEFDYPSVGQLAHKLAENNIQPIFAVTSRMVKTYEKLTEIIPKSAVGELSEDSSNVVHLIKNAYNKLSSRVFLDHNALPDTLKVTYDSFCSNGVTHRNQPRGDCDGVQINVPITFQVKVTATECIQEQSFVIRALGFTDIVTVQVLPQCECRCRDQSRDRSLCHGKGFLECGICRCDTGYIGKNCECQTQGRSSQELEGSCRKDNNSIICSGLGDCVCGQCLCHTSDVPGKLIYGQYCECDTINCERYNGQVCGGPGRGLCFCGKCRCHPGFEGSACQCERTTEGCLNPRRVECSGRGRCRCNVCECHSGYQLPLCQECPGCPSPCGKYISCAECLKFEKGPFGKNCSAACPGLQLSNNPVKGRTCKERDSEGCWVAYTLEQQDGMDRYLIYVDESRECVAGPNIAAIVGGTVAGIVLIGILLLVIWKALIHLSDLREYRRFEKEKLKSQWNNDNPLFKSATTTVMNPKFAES

EC50 [µM]	EC50 E320A	Compound
10.3		CCC(=O)Nc1ccc(C(=O)CSc2nc3ccc(C)cc3[nH]2)cc1 [Compound 2549650]
8.42		Cc1sc2nc(CSc3nc4ccccc4c(=O)n3CCCN3CCOCC3)[nH]c(=O)c2c1C [Compound 2566737]
7.57		CC(C)CCn1c(SCC(=O)N2CC(=O)Nc3ccccc32)nc2scc(-c3cccs3)c2c1=O [Compound 2566842]
10.7		Cc1ccc(CN2C(=O)C3CCCN3c3ccc(S(=O)(=O)N4CCOCC4)cc32)cc1 (stereo not drawn) [Compound 2766156]
18.3		O=C(CC1Nc2ccccc2NC1=O)Nc1ccccc1 (stereo not drawn) [Compound 2829724]
121		CCOC(=O)C(Cc1ccccc1)C(=O)Nc1ccc(NC(=O)C(Cc2ccccc2)C(=O)OCC)cc1 (stereo not drawn) [Compound 2836867]
12.4		COc1ccc(NC(=O)CCC(=O)OCC(=O)c2ccc(Oc3ccc([N+](=O)[O-])cc3)cc2)cc1 [Compound 2912337]
35.6		CC1CCc2c(sc(NC(=O)c3ccc(Cn4cc(Br)cn4)o3)c2C(N)=O)C1 (stereo not drawn) [Compound 2941732]
8.94		CCn1c(COc2ccc3c(c2)CCCC3)nnc1SCC(=O)Nc1ccc(C(=O)OC)cc1 [Compound 2958500]
8.02		CC(C)CN(C(=O)COC(=O)c1cc2c(s1)CCC2)C1CCS(=O)(=O)C1 (stereo not drawn) [Compound 2998734]
9.02		O=C(Cc1coc2cc3c(cc12)CCC3)OCc1cc(=O)n2c(n1)sc1ccccc12 [Compound 3000165]
13.4		CC1=NN(c2nc(-c3ccc(C)cc3)cs2)C(=O)C1N=Nc1ccc2ccccc2c1 (stereo not drawn) [Compound 3101589]
11.4		COc1ccccc1N1CSC2=C(C#N)C(c3ccc(SC)cc3)CC(=O)N2C1 (stereo not drawn) [Compound 3160888]
10.4		CSCCOC(=O)c1[nH]c2c(c1C)C(=O)CC(c1ccco1)C2 (stereo not drawn) [Compound 3162305]
8.48		CCc1nc(SCC(=O)Nc2nnc(CC)s2)c2c(C)c(C)sc2n1 [Compound 3197508]
6.69		Cc1ccc(-c2noc(C3CCCN(S(=O)(=O)c4ccc(S(=O)(=O)N(C)C)cc4)C3)n2)o1 (stereo not drawn) [Compound 3226283]
12.2		Cc1cc(C)c(NC(=O)Cn2c(=O)n(Cc3ccco3)c(=O)c3ccccc32)c(C)c1 [Compound 3237376]
135		COC(=O)/C(=C1/Oc2cc3c(cc2S1)OCO3)C(F)(F)F [Compound 3237460]
10.5		COc1cc(NC(=O)c2noc3c2CCC3)c(OC)cc1Cl [Compound 3238190]
19.1		O=C(CSc1nc2ccccc2c2nc3ccccc3n12)NCc1ccco1 [Compound 3238872]
12.6		CCOC(=O)C1CCN(S(=O)(=O)c2ccc(-c3nc4ccccc4s3)s2)CC1 [Compound 3241379]

EC50 [µM]	EC50 E320A	Compound
9.08		COc1ccc(C(=O)Nc2ccc(N3CCN(c4ccc(OC)cc4)CC3)c(C#N)c2)cc1 [Compound 3241486]
9.7		CCS(=O)(=O)N1CCC(C(=O)NCCCN2CCCCCC2)CC1 [Compound 3244583]
46.2		CN(C)c1ccc(NC(=O)Cn2ncn3c(cc4ccccc43)c2=O)cc1 [Compound 3244843]
10.8		COc1ccccc1-c1cc(C(=O)Nc2sc3c(c2C#N)CCC(C)C3)c2ccccc2n1 (stereo not drawn) [Compound 3272728]
16.5		O=c1cc(CN2CCN(c3cccc(Cl)c3)CC2)c2cc(O)c(-c3ccccc3)cc2o1 [Compound 3287222]
8.78		C=CCN(CC=C)S(=O)(=O)c1ccc(C(=O)Nc2sc3c(c2C(N)=O)CCCCC3)cc1 [Compound 3395368]
12.2		CCCCn1c(=O)[nH]c(=O)c2c1nc(-c1ccc(-c3ccccc3Br)o1)n2CCOC [Compound 3908086]
8.85		O=C1c2cccc(OCC(=O)N3N=C(c4cccs4)CC3c3ccc(F)cc3)c2CCN1Cc1cccnc1 (stereo not drawn) [Compound 4168394]
999		COc1ccc(C2=Nc3nc(-c4ccccc4)cn3C(c3ccc(OC)cc3)C2)cc1 (stereo not drawn) [Compound 4325421]
11.4		O=C(NNC(=O)c1cccc(S(=O)(=O)N2CCN(c3ccccc3)CC2)c1)c1ccc(Cl)cc1 [Compound 4412067]
11.1		N#Cc1ccc(CSc2nnc(NC(=O)C3CC(=O)N(c4ccc5c(c4)OCCO5)C3)s2)cc1 (stereo not drawn) [Compound 4831224]
	Infinite	N#Cc1cccc(NC(=O)CSc2ccc3c4c(cccc24)C(=O)c2ccccc2-3)c1 [Compound 4835204]
60.2		COC(=O)c1c(NC(=O)CN2CCC3(O)CCCCC3C2c2ccc(OC)cc2OC)sc(C)c1C (stereo not drawn) [Compound 4971819]
13		O=C(NCC1OCCc2ccccc21)c1ccc(NC(=O)c2ccc(Cl)cc2)cc1 (stereo not drawn) [Compound 5212443]
8.98		COc1ccc(C2C(C(C)=O)=C(C)N=c3s/c(=C/c4ccc5c(c4)OCO5)c(=O)n32)cc1 (stereo not drawn) [Compound 5287341]
18.7		CC(=O)c1cccc(NC(=O)Nc2cc3sccc3n2C)c1 [Compound 5307308]
9.93		CCOC(=O)N1CCC(NC(=O)c2cccc3c2C(=O)N(c2ccc(OC)cc2)C3)CC1 [Compound 5307705]
14.2		CC1CCN(Cc2ccc(NC(=O)C3CCN(c4nnc(-n5cccc5)s4)CC3)cc2)CC1 [Compound 5309189]
13		COc1ccc(N(CC(=O)N/N=C/c2ccc(-c3ccc([N+](=O)[O-])cc3)o2)S(=O)(=O)c2ccc(C)cc2)cc1 [Compound 5334631]
16.9		Cc1ccc(C)c(N(CC(=O)N/N=C/c2ccc(-c3ccc([N+](=O)[O-])cc3)o2)S(=O)(=O)c2ccccc2)c1 [Compound 5334671]
	Very Low	COc1cc(/C=C2/SC(=S)N(c3ccccc3)C2=O)ccc1Oc1nc(N2CCOCC2)nc(N2CCOCC2)n1 [Compound 5343920]

EC50 [µM]	EC50 E320A	Compound
13.7		O=C(Cn1c2ccccc2c(=O)c2ccccc21)N/N=C/c1ccc(N2CCCC2)c([N+](=O)[O-])c1 [Compound 5347156]
11.7		O=C(N/N=C\c1ccc(-c2ccc([N+](=O)[O-])cc2)o1)c1ccc2c(c1)OCO2 [Compound 5497396]
10.2		COc1ccc(/C=C2/C(=O)N(c3nc4ccccc4s3)N=C2CSc2ccc(Cl)cc2)cc1 [Compound 5727347]
8.84		O=C(NCCN1C(=O)S/C(=C\c2ccccc2)C1=O)c1cc(S(=O)(=O)N2CCOCC2)c(Cl)cc1Cl [Compound 5774232]
7.85		CN(CCC#N)C(=O)COC(=O)c1c2c(nc3ccccc13)/C(=C/c1ccco1)CC2 [Compound 5801934]
9.83		O=C(COC(=O)c1c2c(nc3ccccc13)/C(=C/c1cccc([N+](=O)[O-])c1)CCC2)NC1CCS(=O)(=O)C1 (stereo not drawn) [Compound 5950432]
8.1		O=C(N/N=C\C=C\c1ccco1)c1cc(-c2ccc3ccccc3c2)[nH]n1 [Compound 6030986]
9.05		COc1ccccc1CNC(=O)c1ccc2nc3[nH]c4ccccc4c3nc2c1 [Compound 6079611]
171		NC(=S)N/N=C/c1coc2cc(Cl)ccc2c1=O [Compound 6879466]
11.3		Cc1nc2c(c(=O)n1CCC1=CCCCC1)c1nc3ccccc3nc1n2/N=C/c1ccco1 [Compound 6880170]
7.33		COc1cccc(OCc2cc(/C=N/NC(=O)c3nc(Cl)c(Cl)c(N)c3Cl)ccc2OC)c1 [Compound 6881723]
12.4		COCCNC(=S)N/N=C/c1ccc(OCc2ccc(C(=O)OC)cc2)cc1 [Compound 6892710]
8.76		COc1cccc2sc(Nc3nc(-c4cc5ccccc5oc4=O)cs3)nc12 [Compound 7109922]
8.13		O=C(Cc1cccs1)Nc1nnc(SCc2cccc3ccccc23)s1 [Compound 7191378]
10.7		CC(=O)c1ccc(NC(=O)CSc2ccc(-c3ccc4c(c3)OCO4)nn2)cc1 [Compound 7206282]
10.3		O=C(/C=C/c1ccco1)c1ccc(NC(=O)C23CC4CC(CC(C4)C2)C3)cc1 [Compound 7424594]
8.22		Cc1ccc(-n2c(=O)c(C#N)cc3c(=O)n4cccc(C)c4nc32)cc1 [Compound 9550569]
8.23		Cc1cc(C)cc(NC(=O)Cn2c(=O)oc3cc(S(=O)(=O)N4CCC(C)CC4)ccc32)c1 [Compound 9551541]
22.3		O=C(Nc1ccc(Cl)cc1)[C@@H]1[C@@H]2C(=O)N(c3ccc(Cl)cc3Cl)C(=O)[C@@H]2[C@H]2C=CC=NN21 [Compound 9551824]

Compound	EC50 [µM]	EC50 E320A
O=C(CSc1nnc2c3ccccc3c3ccccc3c2n1)Nc1ccccc1F [Compound 6402388]	11.2	
CCC(C)N1C(=O)/C(=C/c2ccc3c(c2)CCN3CCCCl)C(=O)NC1=S (stereo not drawn) [Compound 6513263]	13.9	
